The text below walks through data of patent US7825256B2, “Inducible nitric oxide synthase dimerization inhibitors” (Kalypsys, Inc., priority 2004, dated 2010).

Where a name gives a salt, the structure may show the parent alone.

For the experiment, the target named is T1, hiNOS (Homo sapiens, UniProt P35228).
T1 construct: expressed in transfected cells; host or cells: HEK293
Nature of the experiment: DAN assay, hiNOS expressed in transiently transfected HEK293 cells. The experiment is classed as cell-based. To be noted: HEK293 cells transiently transfected with hiNOS. The source says: The source of nitric oxide synthase (NOS) enzyme can be generated in several ways including induction of endogenous iNOS using cytokines and/or lipopolysaccharide (LPS) in various cell types known in the art. Alternatively, the gene encoding the enzyme can be cloned and the enzyme can be generated in cells via heterologous expression from a transient or stable expression plasmid with suitable features for protein expression as are known in the art. Enzymatic activity (nitric oxide production) is calcium independent for iNOS, while the constitutive NOS isoforms, nNOS and eNOS, become active with the addition of various cofactors added to cellular media or extract as are well known in the art. Enzymes specified in Table 1 were expressed in HEK293 cells transiently transfected with the indicated NOS isoform.
A major metabolic pathway for nitric oxide is to nitrate and nitrite, which are stable metabolites within tissue culture, tissue, plasma, and urine (S Moncada, A Higgs, N Eng J Med 329, 2002 (1993)).
The level of nitrate or nitrite in the specimen can be quantified by any method known in the art which provides adequate sensitivity and reproducibility. A variety of protocols have also been described for detecting and quantifying nitrite and nitrate levels in biological fluids by ion chromatography (e.g., S A Everett et al., J. Chromatogr. 706, 437 (1995); J M Monaghan et al., J. Chromatogr. 770, 143 (1997)), high-performance liquid chromatography (e.g., M Kelm et al., Cardiovasc. Res. 41, 765 (1999)), and capillary electrophoresis (M A Friedberg et al., J. Chromatogr. 781, 491 (1997)). For example, 2,3-diaminonaphthalene reacts with the nitrosonium cation that forms spontaneously from NO to form the fluorescent product […]. Using 2,3-diaminonaphthalene (“DAN”), researchers have developed a rapid, quantitative fluorometric assay that can detect from 10 nM to 10 μM nitrite and is compatible with a multi-well microplate format. […] DAN reacts with nitrite ion and gives fluorescent […] (M C Carré et al., Analysis 27, 835-838 (1999)). Table 1 provides the test results of various compounds of the subject invention using the DAN assay.
A specimen can be processed prior to determination of nitrate or nitrite as required by the quantification method, or in order to improve the results, or for the convenience of the investigator. For example, processing can involve centrifuging, filtering, or homogenizing the sample. If the sample is whole blood, the blood can be centrifuged to remove cells and the nitrate or nitrite assay performed on the plasma or serum fraction. If the sample is tissue, the tissue can be dispersed or homogenized by any method known in the art prior to determination of nitrate or nitrite. It may be preferable to remove cells and other debris by centrifugation or another method and to determine the nitrate or nitrite level using only the fluid portion of the sample, or the extracellular fluid fraction of the sample. The sample can also be preserved for later determination, for example by freezing of urine or plasma samples. When appropriate, additives may be introduced into the specimen to preserve or improve its characteristics for use in the nitrate or nitrite assay.
The “level” of nitrate, nitrite, or other NO-related product usually refers to the concentration (in moles per liter, micromoles per liter, or other suitable units) of nitrate or nitrite in the specimen, or in the fluid portion of the specimen. However, other units of measure can also be used to express the level of nitrate or nitrite. For example, an absolute amount (in micrograms, milligrams, nanomoles, moles, or other suitable units) can be used, particularly if the amount refers back to a constant amount (e.g., grams, kilograms, milliliters, liters, or other suitable units) of the specimens under consideration. A number of commercially available kits can be used.
As a reminder, the EC50 is the midpoint of the concentration-response curve. The compound `O=C(NCCc1ccc2c(c1)OCO2)[C@@H]1CCCN1c1nc(-n2ccnc2)ns1` [Example 25, (S)-1-(3-Imidazol-1-yl-[1,2,4]thiadiazol-5-yl)-pyrrolidine-2-carboxylic acid (2-benzo[1,3]dioxol-5-yl-ethyl)-amide] showed an EC50 of more than 50 µM.
In turn, `N=C(CN(CCCNCc1ccc2c(c1)OCO2)c1nc(-n2ccnc2)ns1)NO` [Example 63, 2-[{3-[(Benzo[1,3]dioxol-5-ylmethyl)-amino]-propyl}-(3-imidazol-1-yl-[1,2,4]thiadiazol-5-yl)-amino]-N-hydroxy-acetamidine] displayed an EC50 of less than 1 µM.
Under `CN(CCCNCc1ccc(F)c(F)c1)c1nc(-n2ccnc2)ns1` [Example 9, N′-(3,4-Difluro-benzyl)-N-(3-imidazol-1-yl-[1,2,4]thiadiazol-5-yl)-N-methyl-propane-1,3-diamine] stands more than 50 µM.
The compound `CC(C)[C@@H](Nc1nc(-n2ccnc2)ns1)C(=O)NCCc1ccc2c(c1)OCO2` [Example 122, (R)—N-(2-Benzo[1,3]dioxol-5-yl-ethyl)-2-(3-imidazol-1-yl-[1,2,4]thiadiazol-5-ylamino)-3-methyl-butyramide] gave an EC50 of less than 1 µM.
In turn, `Cn1cnc(CN(CCCNCc2ccc3c(c2)OCO3)c2nc(-n3ccnc3)ns2)c1` [Example 106, N′-Benzo[1,3]dioxol-5-ylmethyl-N-(3-imidazol-1-yl-[1,2,4]thiadiazol-5-yl)-N-(1-methyl-1H-imidazol-4-ylmethyl)-propane-1,3-diamine] displayed a 50% effective concentration (EC50) of less than 1 µM.
Under `Cc1cc(C(C)(C)CNC(=O)NCc2ccc3c(c2)OCO3)nc(-n2ccnc2)n1` [Example 144, 1-Benzo[1,3]dioxol-5-ylmethyl-3-[2-(2-imidazol-1-yl-6-methyl-pyrimidin-4-yl)-2-methyl-propyl]-urea] stands less than 1 µM.
With `CCOC(=O)CN(CCCNCc1ccc2c(c1)OCO2)c1nc(-n2ccnc2)ns1` [Example 53, [{3-[(Benzo[1,3]dioxol-5-ylmethyl)-amino]-propyl}-(3-imidazol-1-yl-[1,2,4]thiadiazol-5-yl)-amino]-acetic acid ethyl ester], the 50% effective concentration (EC50) was less than 1 µM.
Compound `Cc1cc(C2CCCN2CCN(C)Cc2ccc3c(c2)OCCO3)nc(-n2ccnc2)n1` (stereo not shown) [Example 93, (2,3-Dihydro-benzo[1,4]dioxin-6-ylmethyl)-{2-[2-(2-imidazol-1-yl-6-methyl-pyrimidin-4-yl)-pyrrolidin-1-yl]-ethyl}-methyl-amine] registered a 50% effective concentration (EC50) of less than 1 µM.
Turning to `O=C(O)CN(CCCNCc1ccc2c(c1)OCO2)c1nc(-n2ccnc2)ns1` [Example 55, [{3-[(Benzo[1,3]dioxol-5-ylmethyl)-amino]-propyl}-(3-imidazol-1-yl-[1,2,4]thiadiazol-5-yl)-amino]-acetic acid], the 50% effective concentration (EC50) was less than 50 µM.
`CN(CCc1ccc2c(c1)OCCO2)CCN(C)c1nc(-n2ccnc2)ns1` [Example 84, N-[2-(2,3-Dihydro-benzo[1,4]dioxin-6-yl)-ethyl]-N′-(3-imidazol-1-yl-[1,2,4]thiadiazol-5-yl)-N,N′-dimethyl-ethane-1,2-diamine] yielded an EC50 of less than 1 µM.
`CN(CCCNCCc1ccc2c(c1)OCCO2)c1nc(-n2ccnc2)ns1` [Example 85, N′-[2-(2,3-Dihydro-benzo[1,4]dioxin-6-yl)-ethyl]-N-(3-imidazol-1-yl-[1,2,4]thiadiazol-5-yl)-N-methyl-propane-1,3-diamine] gave an EC50 of less than 1 µM.
In the case of `Cc1cc(C2CCCCN2CCNCc2ccc3c(c2)OCO3)nc(-n2ccnc2)n1` (stereo not shown) [Example 142, Benzo[1,3]dioxol-5-ylmethyl-{2-[2-(2-imidazol-1-yl-6-methyl-pyrimidin-4-yl)-piperidin-1-yl]-ethyl}-amine] it was less than 1 µM.
`CN(CCCN(Cc1ccc(O)cc1)Cc1ccc(O)cc1)c1nc(-n2ccnc2)ns1` [Example 36, N-(3-Imidazol-1-yl-[1,2,4]thiadiazol-5-yl)-N′,N′-bis-(4-hydroxy-benzyl)-N-methyl-propane-1,3-diamine] yielded a concentration for a half-maximal effect (EC50) of less than 1 µM.
Under `O=C(NCCc1ccc2c(c1)OCCO2)[C@H]1C[C@@H](O)CN1c1nc(-n2ccnc2)ns1` [Example 123, (2R,4R)-4-Hydroxy-1-(3-imidazol-1-yl-[1,2,4]thiadiazol-5-yl)-pyrrolidine-2-carboxylic acid [2-(2,3-dihydro-benzo[1,4]dioxin-6-yl)-ethyl]-amide] stands less than 1 µM.
The compound `Cc1cc(C2C(C(=O)NCCc3ccc4c(c3)OCCO4)CCN2C)nc(-n2ccnc2)n1` (stereo not shown) [Example 124, 2-(2-Imidazol-1-yl-6-methyl-pyrimidin-4-yl)-1-methyl-pyrrolidine-3-carboxylic acid [2-(2,3-dihydro-benzo[1,4]dioxin-6-yl)-ethyl]-amide] yielded an EC50 of less than 1 µM.
Turning to `CNC(=O)CC(NCCNCc1ccc2c(c1)OCO2)c1cc(C)nc(-n2ccnc2)n1` (stereo not shown) [Example 136, Benzo[1,3]dioxol-5-ylmethyl-{2-[1-(2-imidazol-1-yl-6-methyl-pyrimidin-4-yl)-2-methylcarbamoyl-ethylamino]-ethyl}-ammonium trifluoroacetate], the EC50 was less than 1 µM.
In the case of `COc1ccc(CNCCCN(C)c2nc(-n3ccnc3)ns2)c(OC)c1` [Example 17, N′-(2,4-Dimethoxy-benzyl)-N-(3-imidazol-1-yl-[1,2,4]thiadiazol-5-yl)-N-methyl-propane-1,3-diamine] it was less than 1 µM; in that of `COc1ccc(CNCCNC(C)c2cc(C)nc(-n3ccnc3)n2)cc1F` (stereo not shown) [Example 98, N-(3-Fluoro-4-methoxy-benzyl)-N′-[1-(2-imidazol-1-yl-6-methyl-pyrimidin-4-yl)-ethyl]-ethane-1,2-diamine], less than 1 µM.
Under `NCCCN(Cc1nccs1)c1nc(-n2ccnc2)ns1` [Example 52, N′-(3-Imidazol-1-yl-[1,2,4]thiadiazol-5-yl)-N′-thiazol-2-ylmethyl-propane-1,3-diamine] stands less than 1 µM; under `O=C(NCCc1ccc2c(c1)OCCO2)[C@H]1CCCN1c1nc(-n2ccnc2)ns1` [Example 120, 1-(3-Imidazol-1-yl-[1,2,4]thiadiazol-5-yl)-pyrrolidine-2-carboxylic acid [2-(2,3-dihydro-benzo[1,4]dioxin-6-yl)-ethyl]-amide], less than 1 µM; under `Cc1cc(C2CCC(=O)N2CCNCc2ccc3c(c2)OCO3)nc(-n2ccnc2)n1` (stereo not shown) [Example 138, 1-{2-[(Benzo[1,3]dioxol-5-ylmethyl)-amino]-ethyl}-5-(2-imidazol-1-yl-6-methyl-pyrimidin-4-yl)-pyrrolidin-2-one hydrochloride], less than 1 µM.
In the case of `Cc1cc(C(C)(C)C(=O)NCCNCc2ccc3c(c2)OCO3)nc(-n2ccnc2)n1` [Example 66, N-{2-[(Benzo[1,3]dioxol-5-ylmethyl)-amino]-ethyl}-2-(2-imidazol-1-yl-6-methyl-pyrimidin-4-yl)-isobutyramide] it was less than 1 µM; in that of `Cc1cc(C(C)NCCN(C)Cc2ccc3c(c2)OCO3)nc(-n2ccnc2)n1` (single isomer, unassigned) [Example 131, N-Benzo[1,3]dioxol-5-ylmethyl-N-[1-(2-imidazol-1-yl-6-methyl-pyrimidin-4-yl)-ethyl]-N-methyl-ethane-1,2-diamine], less than 1 µM; in that of `CC(NCCNCc1ccc2c(c1)OCO2)c1nc(-n2ccnc2)ns1` (stereo not shown) [Example 64, N-Benzo[1,3]dioxol-5-ylmethyl-N′-[1-(3-imidazol-1-yl-[1,2,4]thiadiazol-5-yl)-ethyl]-ethane-1,2-diamine], less than 1 µM.
On to `CN(CCCNCc1cccs1)c1nc(-n2ccnc2)ns1` [Example 20, N-(3-Imidazol-1-yl-[1,2,4]thiadiazol-5-yl)-N-methyl-N′-thiophen-2-ylmethyl-propane-1,3-diamine], for which the EC50 was more than 50 µM.
